From patent publication US4347319A, “Microbiological epoxidation process” (priority 1980, dated 1982)
Read-outs that look alike come from different tables or passages of the source.

Columns and labels:
Format in all cases: cell-based
[1] = tested on: Methylobacter bovis (CRL M1Y) NRRL B-11,216; assay: Oxidation by washed cell suspensions of methane-grown cells
Summary of the method: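 Products were quantified by gas chromatography (flame ionization) in headspace/liquid samples taken periodically from sealed vials. Each vial held 2 mg washed methane-grown cells in 0.15 M phosphate pH 7.0 under a 1:1 substrate/oxygen gas phase, shaken at 30 °C.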

[2] = tested on: Methylobacter chroococcum (CRL M6) NRRL B-11,214; assay: as above
Summary of the method: (§1)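 Methane-grown cells (30 °C, 2 days) washed and suspended in 0.15 M phosphate pH 7.0; 2 mg cells incubated at 30 °C, 300 rpm under substrate gas:oxygen 1:1 (10 μl for liquid substrates). Products sampled periodically and measured by flame-ionisation gas chromatography.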

[3] = tested on: Methylococcus capsulatus (CRL M1) NRRL B-11,219; assay: as above
Summary of the method: as §1

[4] = tested on: Methylobacterium organophilum (CRL 26 R6) NRRL B-11,222; assay: as above
Summary of the method: as §1

[5] = tested on: Methylosinus trichosporium (CRL 15 PM1) NRRL B-11,202; assay: as above
Summary of the method: as §1

[6] = tested on: Methylomonas rosaceus (CRL M10P) NRRL B-11,212
Protocol: The pH of the nutrient medium was adjusted to 7.0 by the addition of acid or base and 50 ml samples of the nutrient medium were charged into a plurality of 300 ml shaker flasks. The shaker flasks were inoculated with an inoculating loop of cells from an agar plate containing homogeneous colonies of the microorganisms on the plate (the purity of the isolates was confirmed by microscopic examination. The isolates had been maintained on agar plates under an atmosphere of methane and air having a 1:1 v/v gas ratio which had been transferred evey two weeks. The gaseous phase of the inoculated flasks was then replaced with a gas mixture comprised of methane and air having a ratio of 1:1 on a v/v basis. The inoculated flasks were sealed air tight and were incubated on a rotary shaker of orbital radius 2.5 cm at 250 rpm and at 30° C. for two days until turbidity in the medium had developed.
The cells were harvested by centrifugation at 10,000×g. at 4° C. for 30 minutes. The cell pellet was washed twice with a 0.15 M phosphate buffer at a pH of 7.0 (containing 0.002 M MgCl2). The washed cells were then suspended in a 0.15 M phosphate buffer at pH 7.0.
A 0.5 ml sample of each washed cell suspension (2 mg cells) was put into 10 ml vials at 4° C. which were sealed with a rubber cap. The gaseous phase of the vials was removed with vacuum and then was replaced with a gas mixture of the oxidative substrate (e.g., methane) and oxygen at a 1:1 v/v ratio. The vials were then incubated at 30 ° C. on a rotary shaker at 300 rpm. Samples of product (3 μl) were withdrawn periodically with a microsyringe and the products were analyzed by gas chromatography (ionization flame detector column).
The newly discovered and isolated microorganism strains of the present invention were each grown aerobically in the presence of methane in the manner described above. The methane-grown microbial cells were then washed, recovered and put to use in oxidizing an oxidative substrate by the procedure described above except in the case of a liquid substrate 10 μl of the substrate were used.

[7] = methane-grown washed cells, 30° C., methane to methanol, alkene to 1,2-epoxide
[8] = methane-grown cells, propane to acetone, butane to 2-butanone
[9] = methane-grown cell-suspension, pH 7.0, 3° C.
[10] = methane-grown cell-suspension, pH 7.0, 30° C.
[11] = growth substrate Methane, n-alkane to secondary alcohol
[12] = cells grown on methane at 40° C., 30° C. reaction temperature

CCC(C)O (centres unmarked) [2-Butanol]
Conversion Rate to Ketone, 2 hrs. [1]: 20 μmole/2 mg protein
Conversion Rate to Ketone, 2 hrs. [2]: 1 μmole/2 mg protein
Conversion Rate to Ketone, 20 hrs. [2]: 3 μmole/2 mg protein
Conversion Rate to Ketone, 2 hrs. [3]: 18 μmole/2 mg protein
Conversion Rate to Ketone, 20 hrs. [3]: 50 μmole/2 mg protein
Conversion Rate to Ketone, 2 hrs. [4]: 10 μmole/2 mg protein
Conversion Rate to Ketone, 2 hrs. [5]: 20 μmole/2 mg protein

C=CC=C [Butadiene]
Oxidative Conversion Rates [1, 7]: 1.27 μmole/hr/mg protein
Oxidative Conversion Rates [2, 7]: 1.5 μmole/hr/mg protein
Oxidative Conversion Rates [3, 7]: 4.4 μmole/hr/mg protein
Oxidative Conversion Rates [4, 7]: 2.8 μmole/hr/mg protein
Oxidative Conversion Rates [5, 7]: 4.2 μmole/hr/mg protein
Oxidative Conversion Rates [6, 7]: 9.2 μmole/hr/mg protein

CCCC [Butane]
Conversion Rate to Ketone [1]: 3 μmoles/hr/mg Protein
Conversion Rate to Ketone [2]: 1 μmoles/hr/mg Protein
Conversion Rate to Ketone [3]: 2 μmoles/hr/mg Protein
Conversion Rate to 1-Butanol ([3]; pH 7): 0.4 μmoles/hr./mg./protein
Conversion Rate to 2-Butanol ([3]; pH 7): 0.5 μmoles/hr./mg./protein
Conversion Rate to 2-Butanone ([3]; pH 7): 0.2 μmoles/hr./mg./protein
Conversion Rate to n-butanol ([3]; pH 7): 0.2 μmoles/hr./mg./protein
Conversion Rate [4]: 0.80 μmoles/hr/^5 mg. protein
Conversion Rate to Ketone [4]: 2.0 μmoles/hr/mg Protein
Conversion Rate [5]: 1.2 μmoles/hr/^5 mg. protein
Conversion Rate to Ketone [5]: 1.0 μmoles/hr/mg Protein

C [Methane]
Oxidative Conversion Rates [1]: 1.5
Oxidative Conversion Rates [2]: 0.8
Oxidative Conversion Rates [3]: 2.5
Conversion Rate to Methanol ([3]; pH 7): 2.5 μmoles/hr./mg./protein
Oxidative Conversion Rates [4]: 0.7
Oxidative Conversion Rates [5]: 1.2
Oxidative Conversion Rates [6]: 7.3

CCC [Propane]
Conversion Rate to Ketone [1, 8]: 5.0 μmoles/hr/mg Protein
Conversion Rate to Ketone [2, 8]: 2.0 μmoles/hr/mg Protein
Conversion Rate to 2-Propanol [3, 9]: 0.7 μmoles/hr./mg./protein
Conversion Rate to Acetone [3, 9]: 0.3 μmoles/hr./mg./protein
Conversion Rate to 1-Propanol [3, 10]: 0.5 μmoles/hr./mg./protein
Conversion Rate to Propanol [3, 10]: 0.2 μmoles/hr./mg./protein
Conversion Rate to Ketone [3, 8]: 4.0 μmoles/hr/mg Protein
Conversion Rate [4, 11]: 1.4 μmoles/hr/^5 mg. protein
Conversion Rate to Ketone [4, 8]: 3.0 μmoles/hr/mg Protein
Conversion Rate [5, 11]: 2.1 μmoles/hr/^5 mg. protein
Conversion Rate to Ketone [5, 8]: 1.6 μmoles/hr/mg Protein

C=CC [Propylene]
conversion rate propylene to propylene oxide [1, 12]: 0.27 μ mole/2 hr./mg protein
Oxidative Conversion Rates [1, 7]: 1.5 μmole/hr/mg protein
Oxidative Conversion Rates [2, 7]: 1.2 μmole/hr/mg protein
conversion rate propylene to propylene oxide [3, 12]: 7.88 μ mole/2 hr./mg. protein
Oxidative Conversion Rates [3, 7]: 5.5 μmole/hr/mg protein
Oxidative Conversion Rates [4, 7]: 2.5 μmole/hr/mg protein
Oxidative Conversion Rates [5, 7]: 4.5 μmole/hr/mg protein
Oxidative Conversion Rates [6]: 1.41
